Entries after “also recorded” stand apart in the source; their conditions may differ.
Legend:
osteoclast development = assay: Murine osteoclast development in vitro (bone marrow cells + M-CSF and RANKL, TRAP quantitation); format: cell-based, mice
Procedure: Bone marrow cells were isolated from female Balb/c mice and cultured either in medium alone or with addition of 10 ng/ml murine M-CSF and 100 ng/ml murine RANK ligand (RANKL) from day 0 to induce osteoclast development. […] Osteoclast development on day 7 was assessed by colorimetric quantitation of tartrate resistant acid phosphatase activity (TRAP) as well as counting TRAP positive cells with >3 nuclei.
TRAP staining and quantitation were performed at day 6.

serum pyridinoline (PYD) = assay: Serum PYD ELISA in mice bearing 435/HAL-luc bone metastases (osteolysis); format: in vivo
Description: Athymic mice were inoculated with 3×10^6 435/HAL-luc cells into the left ventricle of the heart on day 0. Twenty days later, mice were imaged using the IVIS™ imaging system and placed into two matched groups of 16 mice based on photon emission, a measure of bioluminescence of the cancer. […] Mice were imaged approximately once a week. […] The femur, mandible and spines were collected from mice treated with either compound 1 or its vehicle, and fixed in Streck's Tissue Fixative prior to bone density scanning and histological analysis. Serum was also collected for measurement of collagen breakdown product pyridinoline (PYD) in the circulation.
Serum PYD ELISA: The parental breast carcinoma line MDA-MB-435, is very well characterized as having osteolytic activity (32). […] Serum samples were collected, aliquoted and frozen at −80° C. until analysis. Serum PYD was measured using a competitive enzyme immunoassay kit following the manufacturer's protocol (Serum PYD, Quidel 8019, San Diego, Calif.). Samples were measured in duplicate.

human CSF1R = target: T1, human CSF1R (Homo sapiens, UniProt P07333); assay: CSF1R phosphorylation in 3T3-huCSF1R cells (p-CSF1R Western blot after M-CSF stimulation); format: cell-based; conditions: M-CSF stimulated, FIG. 1
T1 construct: expressed in transfected cells; host or cells: NIH3T3 (3T3-huCSF1R)
T1 sequence (P07333 20-972): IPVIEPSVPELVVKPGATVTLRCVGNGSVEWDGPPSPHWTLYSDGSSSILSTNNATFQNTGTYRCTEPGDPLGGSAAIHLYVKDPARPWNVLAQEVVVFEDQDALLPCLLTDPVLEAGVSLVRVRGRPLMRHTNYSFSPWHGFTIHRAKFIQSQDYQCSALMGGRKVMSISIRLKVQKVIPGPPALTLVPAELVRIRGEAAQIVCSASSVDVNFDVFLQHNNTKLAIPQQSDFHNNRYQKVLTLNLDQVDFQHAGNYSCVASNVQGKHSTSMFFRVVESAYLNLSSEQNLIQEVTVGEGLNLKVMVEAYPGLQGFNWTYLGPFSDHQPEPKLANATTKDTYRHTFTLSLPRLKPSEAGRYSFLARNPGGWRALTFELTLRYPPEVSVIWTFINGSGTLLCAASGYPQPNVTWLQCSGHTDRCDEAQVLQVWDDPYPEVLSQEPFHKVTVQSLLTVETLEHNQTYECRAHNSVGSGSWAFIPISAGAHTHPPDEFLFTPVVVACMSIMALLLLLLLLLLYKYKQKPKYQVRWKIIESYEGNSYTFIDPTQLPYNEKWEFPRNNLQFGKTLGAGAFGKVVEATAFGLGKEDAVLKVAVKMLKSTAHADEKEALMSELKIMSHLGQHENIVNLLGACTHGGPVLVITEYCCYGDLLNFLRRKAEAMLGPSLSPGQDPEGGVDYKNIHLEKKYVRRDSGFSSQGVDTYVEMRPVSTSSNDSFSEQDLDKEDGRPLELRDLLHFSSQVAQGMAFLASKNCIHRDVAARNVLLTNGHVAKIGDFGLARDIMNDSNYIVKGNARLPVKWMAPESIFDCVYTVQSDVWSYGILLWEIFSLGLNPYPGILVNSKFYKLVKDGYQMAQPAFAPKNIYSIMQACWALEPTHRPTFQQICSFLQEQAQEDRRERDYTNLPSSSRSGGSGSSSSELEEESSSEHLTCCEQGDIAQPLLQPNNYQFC
Procedure: Cells were lysed immediately after stimulation and lysates spun at 4° C. for 20 mins. Supernatant was transferred to new microfuge tubes. For each sample, 500 μg of total protein was immunoprecipitated overnight with a rabbit polyclonal antibody to bead-conjugated human CSF1R (Santa Cruz Biotechnology, CA). A p-CSF1R Western blot was then performed, using anti-phospho-CSF1R (Tyr723) antibody (Cell Signaling Technology, Beverly, Mass.) at 1:1000 dilution.

[1] = tested on: 435/HAL-luc breast cancer bone metastases; assay: 435/HAL-luc experimental bone metastasis model, bioluminescence imaging of tumor growth; format: in vivo, mice
Procedure: The MDA-MB-435-HAL-luc breast cancer xenograft model was used to confirm significant inhibition of the growth of breast cancer bone metastases. The presence of live tumor cells was monitored by bioluminescence imaging with the Xenogen IVIS™ system.
The human breast carcinoma cell line 435/HAL was obtained (Pharmacia Corp., St. Louis, Mo.). […] Stable transfection of 435/HAL cells with luciferase (light emitting enzyme of firefly Photinus pyralis) was then performed. The cells were cotransfected with pGL3-control (Promega, Madison, Wis.) and pTK-Hygro (Clontech, Palo Alto, Calif.) at a 1:4 ratio using Lipofectamine 2000 (Invitrogen, Carlsbad, Calif.). Cells were maintained in Hygromycin (200 μg/ml) (Invitrogen) and resistant colonies isolated by ring cloning. Hygro-resistant colonies were screened for luciferase expression using Promega brite-glo reagent, normalized as RLU/μg protein. A subclone with the highest luciferase activity was selected, which we refer to as ‘435/HAL-luc.’ […]
Mice were injected intraperitoneally with 150 mg/kg of luciferin (Xenogen Corp., Alameda, Calif.), followed by anesthetization with Ketamine/Xylazine five minutes later. […] Briefly, mice were placed on the temperature-controlled bed of the imaging chamber and a gray-scale whole body image of the ventral side of the mice was captured, followed by an overlay of a bioluminescence map representing the spatial distribution of photons detected from cleaved luciferin in the cancer cells expressing luciferase. […] The bioluminescent signal was quantified by counting the pixels within the area drawn around each site of photon emission, using a customized version of the IGOR Pro version 4.0 Software (WaveMetrics, Inc., Lake Oswego, Oreg.) called Living Image version 2.11 (Xenogen Corporation, Alameda, Calif.). The sum of all detected photon counts within a region of interest containing the entire cancer lesion was determined. For evaluation of tumor growth inhibition, the Student's t test was used to assess differences in photon emission readings between treated and control groups (p<0.05 was considered significant). […]

Which results are given for `CCN(CC)CCNC(=O)c1c(C)[nH]c(C=C2C(=O)Nc3ccc(F)cc32)c1C` [compound 1, 5-(5-Fluoro-2-oxo-1,2-dihydro-indol-3-ylidenemethyl)-2,4-dimethyl-1H-pyrrole-3-carboxylic acid (2-diethylamino-ethyl)-amide]?
effect of time of addition of compound (D0, D2 or D4) on osteoclast development (osteoclast development; 100 nM and 10 nM, TRAP at day 6, FIG. 2b): the later precursor cells are exposed to compound 1, the less inhibitory effect the compound exhibits; also recorded: inhibits an early stage of osteoclast development, but not later stages; concentrations at which development of osteoclasts is inhibited (osteoclast development; Balb/c bone marrow cells, M-CSF 10 ng/ml + RANKL 100 ng/ml, day 7, TRAP, FIG. 2a): 10 to 100 nM; inhibition of osteoclast development (osteoclast development; in vitro, FIG. 2a): inhibits osteoclast development in a dose-dependent manner; serum PYD mean value (serum pyridinoline (PYD); 80 mg per kg): 1.3 ± 0.16 ng/mL; reduction of serum PYD levels compared to vehicle treated mice (serum pyridinoline (PYD); 14 compound 1 treated vs 12 vehicle treated mice, p=0.047): 30%; osteolysis as measured by pyridinoline levels (serum pyridinoline (PYD); mice with breast cancer metastases to bone, FIG. 4): less osteolysis; inhibition of CSF1R phosphorylation (human CSF1R): inhibits CSF1R phosphorylation in a dose-dependent manner; also recorded: inhibits phosphorylation of M-CSF receptors; live tumor / growth of breast cancer metastases by bioluminescence imaging ([1]; MDA-MB-435-HAL-luc xenograft model): significant reduction in live tumor; also recorded: inhibits the growth of breast cancer metastases; photon count emission from the mouse bones ([1]; at both doses (80 or 40 mg per kg once daily by gavage), FIG. 3): greatly decreased; inhibition of tumor growth in bone (photon emission, long bones and mandibles) ([1]; day 41, 80 or 40 mg per kg once daily by gavage, p=0.001): 89%

Reference: patent US20040209937A1, “Treatment of excessive osteolysis with indolinone compounds” (SUGEN, INC., priority 2003, published 2004)
